# Laboratory results as given in ChEMBL document CHEMBL4219058, “Discovery of new thienopyrimidine derivatives as potent and orally efficacious phosphoinositide 3-kinase inhibitors” (Bioorg Med Chem, 2018).
# Key:
# U-87 MG = experiment: Antiproliferative activity against human U87MG cells after 4 days by Celltiter-Glo luminescence cell viability assay; assay type: functional, cell-based, U-87MG ATCC; conditions: 96 h
# [1] = Effective permeability of the compound measured after 5 hrs by PAMPA; assay type: ADME; conditions: read-out: Peff
# [2] = target: Phosphatidylinositol 4,5-bisphosphate 3-kinase catalytic subunit gamma isoform (Homo sapiens, UniProt P48736); experiment: Inhibition of PI3Kgamma (unknown origin) using PIP2 as substrate measured after 1 hr by Kinase-Glo luminescence assay
# Chain of Phosphatidylinositol 4,5-bisphosphate 3-kinase catalytic subunit gamma isoform (P48736 whole entry, canonical isoform): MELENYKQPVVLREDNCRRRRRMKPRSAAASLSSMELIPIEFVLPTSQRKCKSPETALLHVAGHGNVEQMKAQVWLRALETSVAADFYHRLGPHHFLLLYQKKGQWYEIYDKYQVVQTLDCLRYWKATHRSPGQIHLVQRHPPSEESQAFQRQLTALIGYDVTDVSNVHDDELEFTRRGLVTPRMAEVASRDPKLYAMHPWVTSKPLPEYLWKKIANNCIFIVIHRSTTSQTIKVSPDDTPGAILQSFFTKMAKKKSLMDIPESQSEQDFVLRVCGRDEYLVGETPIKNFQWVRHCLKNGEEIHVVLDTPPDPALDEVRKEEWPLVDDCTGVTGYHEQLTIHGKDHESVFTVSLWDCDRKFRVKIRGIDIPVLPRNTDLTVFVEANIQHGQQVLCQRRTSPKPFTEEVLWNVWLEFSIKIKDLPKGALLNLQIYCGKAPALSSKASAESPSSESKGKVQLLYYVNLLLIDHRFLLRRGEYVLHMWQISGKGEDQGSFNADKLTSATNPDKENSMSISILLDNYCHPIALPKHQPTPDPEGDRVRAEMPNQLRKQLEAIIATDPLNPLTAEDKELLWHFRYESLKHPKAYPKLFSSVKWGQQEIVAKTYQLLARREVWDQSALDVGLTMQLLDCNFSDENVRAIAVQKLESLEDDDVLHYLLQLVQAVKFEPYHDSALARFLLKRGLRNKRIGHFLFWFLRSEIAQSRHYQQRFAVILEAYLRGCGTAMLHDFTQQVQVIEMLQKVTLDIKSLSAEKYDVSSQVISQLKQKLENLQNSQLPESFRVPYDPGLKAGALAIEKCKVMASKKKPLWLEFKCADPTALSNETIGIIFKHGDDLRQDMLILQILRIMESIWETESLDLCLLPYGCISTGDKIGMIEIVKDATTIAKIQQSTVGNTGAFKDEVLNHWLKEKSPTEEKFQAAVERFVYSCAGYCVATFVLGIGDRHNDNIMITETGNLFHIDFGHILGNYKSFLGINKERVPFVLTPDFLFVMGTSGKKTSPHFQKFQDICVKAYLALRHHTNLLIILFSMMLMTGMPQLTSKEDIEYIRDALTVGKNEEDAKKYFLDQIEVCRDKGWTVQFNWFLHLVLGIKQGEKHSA
IC50 (U-87 MG),Papp at 5 h [1],IC50 [2],Structure (SMILES)
0.34 µM,–,–,COc1ccc(-c2cc3c(C)nc(N)nc3n([C@H]3CC[C@H](OCCO)CC3)c2=O)cn1 [PF-04691502]
–,4.8 ×10⁻⁶ cm/s,–,COc1ncc(-c2cc3c(C)nc(N)nc3s2)cc1NS(=O)(=O)c1ccc(F)cc1F
–,9.6 ×10⁻⁶ cm/s,0.011 µM,COc1ncc(-c2cc3c(C)nc(NC(C)=O)nc3s2)cc1NS(=O)(=O)c1ccc(F)cc1F
